Counter-ions that a name gives are not always drawn. Active and inactive are the calls of the source. The rule behind the calls is not given here.
Legend:
[1] = test system: Influenza B virus; type: functional, organism-based; settings: B/Hong Kong/05/1972, MDCK
[2] = test system: H2N2 subtype; type: functional, organism-based, Influenza A virus (A/Japan/305/1957(H2N2)); settings: Influenza A virus, MDCK
[3] = molecular target: Glutamate NMDA receptor; assay: Inhibition of NMDA receptor in rat cerebellar granule neurons assessed as glutamate-induced intracellular calcium increase; type: cell-based
[4] = Cytotoxicity against MDCK cells assessed as detectable alteration of normal cell morphology; type: cell-based, Canis lupus familiaris; settings: dog, read-out: Activity
[5] = molecular target: Glutamate NMDA receptor; assay: Inhibition of NMDA receptor in rat cerebellar granule neurons assessed as NMDA-induced intracellular calcium increase; type: cell-based
[6] = Binding affinity to influenza A virus A/chicken/Germany/27 H7N7 weybridge strain M2 ion channel expressed in Escherichia coli

Row | Compound | Activity [1] | EC50 [2] [µM] | IC50 [3] [µM] | MCC [4] [mM] | IC50 [5] [µM] | Kd [6] [µM] | EC50 [1] [µM]
1 | CC1(N)C2CC3CC(C2)CC1C3 (centres undefined) | inactive | 3.5 | 306 | > 1.24 | 64.4 | 3.6 | –
2 | CC1(F)C2CC3CC(C2)CC1C3 (centres undefined) | – | – | – | – | – | > 26 | –
3 | NC12CC3CC(CC(C3)C1)C2 [AMANTADINE HYDROCHLORIDE] | inactive | 1.1 | – | > 1.33 | – | 0.32 | –
4 | CCCC1(O)C2CC3CC(C2)CC1C3 (centres undefined) | inactive | < 2.1 | > 350 | > 1.29 | > 350 | – | –
5 | CCC1(N)C2CC3CC(C2)CC1C3 (centres undefined) | inactive | < 1.9 | – | > 1.16 | – | 6.7 | –
6 | C1CCC2(NC1)C1CC3CC(C1)CC2C3 (centres undefined) | – | 1 | 239 | > 1.03 | 19 | 0.39 | 241
7 | C1CNC2(C1)C1CC3CC(C1)CC2C3 (centres undefined) | inactive | 1.8 | 314 | > 1.1 | 50.6 | 1.16 | –
8 | CC1(O)C2CC3CC(C2)CC1C3 (centres undefined) | inactive | 3 | > 350 | > 1.51 | > 350 | – | –
9 | NC1C2CC3CC(C2)CC1C3 (centres undefined) | inactive | 2.8 | > 350 | > 1.33 | 219 | 2.36 | –
10 | CCCC1(N)C2CC3CC(C2)CC1C3 (centres undefined) | inactive | < 1.7 | 258 | > 1.09 | 61.3 | 8.71 | –
